The text below walks through data of a melting point compilation (Tetko et al.; mined from patent text by program, amines drawn as free bases though some values may be those of a salt).

For the compound `Cc1c(Cc2ccccc2)c(=O)n(Cc2ccc(F)cc2)c2cc(OCc3nnn[nH]3)cc(OCc3nnn[nH]3)c12`, the melting point – broadly, the temperature of the solid-liquid transition – was in the range of 126 to 132 °C.

`N#CN1CCN(c2nn(-c3ccccc3)c3cc(F)ccc23)CC1`: the melting point was in the range of 172 to 174 °C.

For the compound `CCOc1nn(-c2ccc(C(F)(F)F)cn2)cc1CCCOc1cccc(CCC(=O)O)c1`, the melting point lay in the range of 88 to 89 °C.

As for `COc1cccc2c1CCC(CN1CCC(O)(c3ccccc3)CC1)C2=O` (configuration not stated), the melting point lay in the range of 163 to 165 °C.

As for `FC(F)(F)C(F)(F)C(F)(F)COc1ccnc(CSc2nc3cscc3[nH]2)c1`, the melting point worked out at 117 °C.

Regarding `CCOc1cc2c(cc1OC)C(c1ccc(OC)c(OC)c1)=NN=C(C)C2CC` (configuration not stated), the melting point lay within 125 to 127 °C.

As to `CNC(=O)c1[nH]c(C(C)(C)C)cc1NC(=O)Nc1ccc(C)cc1`, the melting point fell in the range of 164 to 166 °C.

`Fc1cc2c(cc1F)C(Cl)Cc1ccccc1S2` (configuration not stated) gave a melting point of 68 to 71 °C.

With `COc1c(C)cc(Cc2ccc3c(c2)OCO3)cc1C`, the melting point is 49 °C.

In turn, `FC(F)(F)Sc1c(Cl)c(Cl)c(CBr)c(Cl)c1Cl` registered a melting point of 117 to 118 °C.

As for `CC(=O)Nc1ccc(S(=O)(=O)CCCCNS(=O)(=O)c2ccc(C)cc2)cc1`, the melting point lay within 93 to 95 °C.

`CN(C)CCN(C)C(=O)c1ccc2cc(-c3csc(N(C)S(=O)(=O)c4ccccc4)n3)c(=O)[nH]c2c1` registered a melting point of 144 to 148 °C.

For `Cc1ccc(Nc2ccccc2[N+](=O)[O-])c(C#N)c1`, the melting point is 135 to 139 °C.

In turn, `N#CC1(c2ccccc2)CCN(c2ccn(CC3CC3)c(=O)c2Cl)CC1` yielded a melting point of 174 °C.

For `Cc1ccccc1-n1c(-c2sc(Nc3ccccc3)nc2-c2ccccc2)nc2ccccc2c1=O`, the melting point was in the range of 141 to 143 °C.

With `O=Cc1ccc(N(CCO)CCO)cc1`, the melting point fell in the range of 63 to 64 °C.

For `Cc1cc(Cl)ccc1NC(=S)NC(=O)c1ccccc1`, the melting point was determined as 148 °C.

Compound `CCCCc1ccc(NC(=O)c2ccccc2C(c2ccc(O)cc2)c2ccc(O)cc2)cc1` displayed a melting point of 119 to 121 °C.

`CC(C)=CCN1N=C(c2ccc(F)cc2)c2cc(Cl)ccc2CS1(=O)=O`: the melting point fell in the range of 168 to 169 °C.

`Cc1nc(-c2ncn3c2[C@@H]2CCCN2C(=O)c2c(Cl)cccc2-3)no1` registered a melting point of 205 to 206 °C.

The compound `CCCCCCCCCCCCCCCCCC(=O)Nc1cccc(N(CC(=O)O)CC(=O)O)c1` returned a melting point of 135 to 140 °C.

Turning to `CC(=O)OCC1OC(n2ccc3c(Br)cccc32)C(OC(C)=O)C(OC(C)=O)C1OC(C)=O` (configuration not stated), the melting point lay within 166 to 167 °C.

Consider `CCN1C(=O)C(C)(C)C(=O)N(C)c2cc(CCN(CCn3ccc4oc(C)cc4c3=O)Cc3cc(C)nn3C)ccc21`, for which the melting point lay within 134 to 140 °C.

Compound `Cc1ccc(Cl)c(NS(=O)(=O)c2nc3nc(Cl)cc(Cl)n3n2)c1Cl` came in with a melting point of 269 to 271 °C.

As to `Cc1c(-c2ccccc2)oc2c(SCCCCCl)cccc2c1=O`, the melting point was 81 to 84 °C.

Compound `COP(=O)(OC)C(c1ccc(F)cc1)(c1ccc(F)cc1)c1ccc(Cl)cc1` yielded a melting point of 136 to 137 °C.

The compound `CN1C(=O)[C@H](NC(=O)CNc2ccccc2Cl)N=C(c2ccccc2)c2ccccc21` showed a melting point of 222 to 224 °C.

On to `CCC(CC)(CCC#N)C(NC(=O)c1ccc(Cl)cc1)NC(=NC#N)Nc1cccnc1` (configuration not stated), for which the melting point lay within 150 to 152 °C.

Turning to `OCc1cn(-c2ccc(F)c(C(F)F)c2)cn1`, the melting point was in the range of 133 to 134 °C.

Compound `O=C1N(CCN(c2ccccn2)c2ccccn2)c2ccccc2C12COc1cc3c(cc12)OCO3` (configuration not stated) showed a melting point of 165 to 167 °C.

Regarding `CCOP(=O)(OCC)C(P(=O)(OCC)OCC)S(=O)(=O)c1cc(C(C)(C)C)c(O)c(C(C)(C)C)c1`, the melting point lay within 118 to 120 °C.

For `c1ccc(C(CC2CC3CCN2CC3)c2ccccc2)cc1` (configuration not stated), the melting point is 87.5 to 89 °C.

Regarding `Cc1cc(CNS(=O)(=O)c2ccc(Br)s2)cc(C)n1`, the melting point was found to be 138 °C.

The compound `COc1cccc(N(CC(=O)N(C)c2ccccc2)C(=O)CNC(=O)Nc2cccc(C)c2)c1` showed a melting point of 179 °C.

Consider `CC(C)n1nc(C(=O)NCC2CCN(CC(=O)Nc3ccc(OCc4ccccc4)cc3)CC2)c2ccccc21`, for which the melting point was 113 to 115 °C.

`Cc1cccc(-n2c(CF)nc3ccc([N+](=O)[O-])cc3c2=O)c1C` showed a melting point of 178 to 180 °C.

`Cc1nnc(-c2ccnc(Nc3cccc(C(F)(F)F)c3)c2)o1` yielded a melting point of 217 to 218 °C.

The compound `CC(C)(C)COc1ccc([N+](=O)[O-])cc1Br` gave a melting point of 86 to 88 °C.

`CC(C)Nc1cccnc1N1CCN(C(=O)c2ccc(C(=O)N[C@H](CO)CC3CCCCC3)cc2)CC1` displayed a melting point of 139 to 140 °C.

`COc1cc(Nc2nc3cccc(-c4ccn[nH]4)c3o2)cc(OC)c1OC` came in with a melting point of 185 to 189 °C.

On to `N#Cc1ccc(O)c(NC(=O)C(=O)O)c1`, for which the melting point is more than 300 °C.

`CCC(=S)NC[C@H]1CN(c2ccc(N3CCN(C#N)CC3)c(F)c2)C(=O)O1` came in with a melting point of 182 to 184 °C.

`C[Si](C)(C)c1ccc2cc3c(cc2c1)C(=O)c1ccccc1C3=O`: the melting point lay in the range of 168 to 170 °C.

Compound `CC(C)=NOCc1nc2c(N)nc3cccnc3c2n1CCCNC(=O)NC1CCCCC1` returned a melting point of 207 to 208 °C.

In the case of `COc1cc(CO)c(OC)cc1Cl`, the melting point was in the range of 89 to 90 °C.

In the case of `Nc1cccc(-c2ccc(CCN3CCC4(CCCC4)CC3)cc2)n1`, the melting point was in the range of 130 to 132 °C.

For the compound `COc1cc(Cc2ccc3nc(N)nc(N)c3c2)cc(OC)c1OC`, the melting point lay within 219 to 221 °C.

Regarding `c1ccc(CN2CCN(c3ccnc4[nH]ccc34)CC2)cc1`, the melting point came to 175 °C.

In turn, `CC(C)(C)OC(=O)CN(CC(=O)O)CC(=O)OC(C)(C)C` returned a melting point of 76 to 82 °C.

`CC1(C)Cc2c(c(N3CCCC3)nc3sc4c(NCc5ccncc5)ncnc4c23)CO1` came in with a melting point of 228 to 229 °C.

In turn, `CCCCCN(CCC1CCCCC1)C(=O)NCc1ccncc1` returned a melting point of 64.7 to 65.8 °C.

The compound `COc1ccccc1N1CCN(C[C@@H](CC2CCCCC2)NC(=O)C2CCCCC2)CC1` gave a melting point of 121 to 131 °C.

Compound `CCOC(=O)c1c(C(=O)Nc2ccc(Cl)cc2C)cccc1[N+](=O)[O-]` gave a melting point of 164 to 165 °C.

`Cc1c(C)c2c(c(C)c1N)CC(C)(CN1CCN(C(=O)C(c3ccccc3)c3ccccc3)CC1)O2` (configuration not stated) had a melting point of 113 to 115 °C.

For the compound `Cc1ccc(-c2nc3c([nH]c(=O)c4ccccc43)s2)cc1`, the melting point lay within 314 to 316 °C.

In turn, `O=C(CNc1ccc2cn[nH]c2c1)N1CCC(Cc2ccccc2)CC1` had a melting point of 179 to 182 °C.

As to `CCCNC(=O)C(C)(C)n1cc(C)c(-c2ccccc2)n1`, the melting point fell in the range of 47 to 50 °C.

As to `O=C1NC(=O)c2c(F)cccc21`, the melting point is 176 to 179 °C.

In turn, `COc1ccc(/C(=C/C=C/C(=O)Oc2ccc([N+](=O)[O-])cc2)C(C)C)cc1` gave a melting point of 95 to 96.5 °C.

Turning to `COC(=O)Nc1nc2ccc(OS(=O)(=O)c3ccc(-n4ccnc4)cc3)cc2[nH]1`, the melting point was found to be 258 °C.

In turn, `O=C(O)c1cc(N=Cc2ccccc2)ccc1O` displayed a melting point of 213 to 215 °C.

In turn, `CC(C)(C)C(=O)N(NC(=O)c1ccccc1)C(C)(C)C` registered a melting point of 217 to 220 °C.
